Reference: US10351539B2, “Macrocyclic complexes, their process of preparation and use as PET imaging agents” (INSTITUT NATIONAL DE LA SANTE ET DE LA RECHERCHE MEDICALE …, priority 2014, dated 2019)

How the values were obtained:
[1] = Study 1: biodistribution of ^99mTc-NTP 15-5 in healthy rat; assay type: in vivo; details: 1 h p.i., 0.37 MBq, average from 3 animals ± SD
Protocol: Quantitative biodistribution of radiolabelled compounds was determined in rats: healthy animals as well as rats with primary grade II orthotopic chondrosarcoma at stage Day-30 after induction. The chondrosarcoma model was the Swarm Rat Chondrosarcoma model (SRC) implanted in paratibial location. […] One hour after injection, animals were then sacrificed by CO2 inhalation, dissected and organs of interest removed, weighed and their radioactivity counted using a gamma counter (Model 1480 Wizard, Perkin Elmer Life Sciences, Boston, USA). Organs collected were blood, muscle, knee, kidneys, liver, thoracic ribs, bladder for both healthy and chondrosarcoma bearing rats. For SRC animals, tumour was also sampled. After radioactive decay correction, results were expressed for each organ as % injected dose per gram (% ID/g) and averaged per group.
The following table discloses the biodistribution of ^99mTc-NTP 15-5 in healthy rat, carried out in similar conditions than those of the compounds of the invention (see section C above).

[2] = Study 2: biodistribution in healthy New Zealand rabbits (gamma counting of dissected organs); assay type: in vivo; details: i.v.
Protocol: Biodistribution were determined in 36 healthy New Zealand rabbits (18 males and 18 females, 14 weeks old, 3.5 kg weight, Charles River, France), being randomly divided into two groups: • One group receiving ^99mTc-NTP 15-5: 18±3 MBq/animal for biodistribution; • One group receiving ^64Cu-2: 17±4 MBq/animal for biodistribution.
The compounds were i.v. administered to anesthetized animals (ketamine/xylazine by intramuscular route) in the marginal ear vein.
At selected time points after injection (15 min, 1 h, 3 h, 6 h, 20 h after injection), animals (3 animals/time point/compound) were sacrificed by a lethal i.v. dose of pentobarbital. Organs of interest were dissected, weighed and their radioactivity measured using a gamma counter (Model 1480 Wizard, Perkin Elmer Life Sciences, Boston, USA). After radioactive decay correction, results were expressed for each organ as % injected dose per gram (% ID/g) and averaged per group and per time point.

In the case of `CC[N+](CC)(CC)CCCN1CC[N]2CC[N]3CC[N]4CC[N](CC1)[Tc]234(=[O])=[O].[Br-]` [^99mTc-NTP 15-5, reference compound], the Blood [1] was 0.90 ± 0.08 % ID/g, the “Bone (tibia)” value [1] was 0.51 ± 0.29 % ID/g and the Brain [1] was 0.14 ± 0.02 % ID/g. For the same compound, the Kidney [1] was 15.4 ± 12.5 % ID/g, the Liver [1] was 2.02 ± 0.38 % ID/g and the Lung [1] was 1.71 ± 0.97 % ID/g. The Muscle [1] was 0.37 ± 0.24 % ID/g, the Spleen [1] was 0.71 ± 0.25 % ID/g and the Testis [1] was 1.11 ± 0.47 % ID/g. The Tibial plateau [1] was 2.99 ± 1.60 % ID/g, the “Uptake ratio Cartilage/Bone” value ([2]; 15 min) was 51.5 and the “Uptake ratio Cartilage/Muscle” value ([2]; 15 min) was 103. The “Articular Cartilage” value ([2]; 15 min after injection) was 1.03 ± 0.4 % ID/g, the Bile ([2]; 15 min after injection) was 0.09 ± 0.08 % ID/g and the Blood ([2]; 15 min after injection) was 1.09 ± 0.81 % ID/g. The Bone ([2]; 15 min after injection) was 0.02 ± 0.01 % ID/g, the “Bone Marrow” value ([2]; 15 min after injection) was 0.02 ± 0.02 % ID/g and the Kidney ([2]; 15 min after injection) was 0.19 ± 0.03 % ID/g. The Liver ([2]; 15 min after injection) was 0.05 ± 0.02 % ID/g, the Lung ([2]; 15 min after injection) was 0.04 ± 0.04 % ID/g and the Muscle ([2]; 15 min after injection) was 0.01 ± 0.00 % ID/g. It also gave a Spleen ([2]; 15 min after injection) of 0.03 ± 0.06 % ID/g, a Thyroid ([2]; 15 min after injection) of 0.05 ± 0.04 % ID/g and a Urine ([2]; 15 min after injection) of 1.40 ± 1.02 % ID/g. The “Uptake ratio Cartilage/Bone” value ([2]; 1 h) was 46, the “Articular Cartilage” value ([2]; 1 h after injection) was 0.92 ± 0.4 % ID/g and the Bile ([2]; 1 h after injection) was 0.09 ± 0.07 % ID/g. For the same compound, the Blood ([2]; 1 h after injection) was 0.75 ± 0.09 % ID/g, the Bone ([2]; 1 h after injection) was 0.02 ± 0.00 % ID/g and the “Bone Marrow” value ([2]; 1 h after injection) was 0.01 ± 0.00 % ID/g. For the same compound, the Kidney ([2]; 1 h after injection) was 0.10 ± 0.06 % ID/g, the Liver ([2]; 1 h after injection) was 0.06 ± 0.03 % ID/g and the Lung ([2]; 1 h after injection) was 0.02 ± 0.00 % ID/g. For the same compound, the Muscle ([2]; 1 h after injection) was 0.00 ± 0.00 % ID/g, the Spleen ([2]; 1 h after injection) was 0.02 ± 0.01 % ID/g and the Thyroid ([2]; 1 h after injection) was 0.06 ± 0.03 % ID/g. The Urine ([2]; 1 h after injection) was 4.08 ± 5.75 % ID/g, the “Articular Cartilage” value ([2]; 3 h after injection) was 0.35 ± 0.15 % ID/g and the Bile ([2]; 3 h after injection) was 0.18 ± 0.24 % ID/g. The Blood ([2]; 3 h after injection) was 0.17 ± 0.81 % ID/g, the Bone ([2]; 3 h after injection) was 0.00 ± 0.00 % ID/g and the “Bone Marrow” value ([2]; 3 h after injection) was 0.00 ± 0.00 % ID/g. The Kidney ([2]; 3 h after injection) was 0.09 ± 0.03 % ID/g, the Liver ([2]; 3 h after injection) was 0.08 ± 0.02 % ID/g and the Lung ([2]; 3 h after injection) was 0.01 ± 0.00 % ID/g. It also gave a Muscle ([2]; 3 h after injection) of 0.00 ± 0.00 % ID/g, a Spleen ([2]; 3 h after injection) of 0.00 ± 0.00 % ID/g and a Thyroid ([2]; 3 h after injection) of 0.11 ± 0.01 % ID/g. The Urine ([2]; 3 h after injection) was 1.34 ± 0.52 % ID/g, the “Articular Cartilage” value ([2]; 6 h after injection) was 0.09 ± 0.03 % ID/g and the Bile ([2]; 6 h after injection) was 0.08 ± 0.02 % ID/g. The Blood ([2]; 6 h after injection) was 0.03 ± 0.00 % ID/g, the Bone ([2]; 6 h after injection) was 0.00 ± 0.00 % ID/g and the “Bone Marrow” value ([2]; 6 h after injection) was 0.00 ± 0.00 % ID/g. The Kidney ([2]; 6 h after injection) was 0.06 ± 0.01 % ID/g, the Liver ([2]; 6 h after injection) was 0.06 ± 0.01 % ID/g and the Lung ([2]; 6 h after injection) was 0.00 ± 0.00 % ID/g. The Muscle ([2]; 6 h after injection) was 0.00 ± 0.00 % ID/g, the Spleen ([2]; 6 h after injection) was 0.00 ± 0.00 % ID/g and the Thyroid ([2]; 6 h after injection) was 0.02 ± 0.03 % ID/g. For the same compound, the Urine ([2]; 6 h after injection) was 1.61 ± 0.6 % ID/g, the “Articular Cartilage” value ([2]; 20 h after injection) was 0.04 ± 0.01 % ID/g and the Bile ([2]; 20 h after injection) was 0.03 ± 0.01 % ID/g. For the same compound, the Blood ([2]; 20 h after injection) was 0.00 ± 0.00 % ID/g, the Bone ([2]; 20 h after injection) was 0.00 ± 0.00 % ID/g and the “Bone Marrow” value ([2]; 20 h after injection) was 0.00 ± 0.00 % ID/g. It also gave a Kidney ([2]; 20 h after injection) of 0.07 ± 0.00 % ID/g, a Liver ([2]; 20 h after injection) of 0.03 ± 0.02 % ID/g and a Lung ([2]; 20 h after injection) of 0.00 ± 0.00 % ID/g. It also gave a Muscle ([2]; 20 h after injection) of 0.00 ± 0.00 % ID/g, a Spleen ([2]; 20 h after injection) of 0.01 ± 0.00 % ID/g and a Thyroid ([2]; 20 h after injection) of 0.00 ± 0.00 % ID/g. For the same compound, the Urine ([2]; 20 h after injection) was 0.40 ± 0.01 % ID/g.
